Structures are written as SMILES.

The record followed here is ChEMBL document CHEMBL5291721, “A preclinical secondary pharmacology resource illuminates target-adverse drug reaction associations of marketed drugs” (Nat Commun, 2023).

In test [1] the target is T1, Prostaglandin G/H synthase 1 (Rattus norvegicus, UniProt Q63921).
T1 sequence (Q63921 whole entry): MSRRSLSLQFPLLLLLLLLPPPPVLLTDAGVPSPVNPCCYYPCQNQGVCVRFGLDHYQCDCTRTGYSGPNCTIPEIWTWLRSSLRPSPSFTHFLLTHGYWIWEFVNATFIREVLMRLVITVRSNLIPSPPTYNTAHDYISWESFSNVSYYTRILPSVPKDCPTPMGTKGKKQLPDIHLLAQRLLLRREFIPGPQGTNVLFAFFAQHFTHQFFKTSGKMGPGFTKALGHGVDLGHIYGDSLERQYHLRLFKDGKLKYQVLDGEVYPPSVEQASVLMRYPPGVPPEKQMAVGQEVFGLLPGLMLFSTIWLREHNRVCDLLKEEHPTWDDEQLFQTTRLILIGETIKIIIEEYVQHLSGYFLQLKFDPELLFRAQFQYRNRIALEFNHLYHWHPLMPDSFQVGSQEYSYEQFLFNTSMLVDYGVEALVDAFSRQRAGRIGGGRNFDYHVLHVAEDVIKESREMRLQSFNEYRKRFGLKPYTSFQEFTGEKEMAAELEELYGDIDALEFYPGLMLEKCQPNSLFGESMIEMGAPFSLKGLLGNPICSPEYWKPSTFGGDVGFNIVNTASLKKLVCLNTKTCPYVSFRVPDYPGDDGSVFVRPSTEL
The test is classed as functional.

For test [2], the target named is cGMP-inhibited 3',5'-cyclic phosphodiesterase 3A (Homo sapiens, UniProt Q14432). The test is classed as functional.
Test [3] concerns the target T2, Muscarinic acetylcholine receptor M2 (Homo sapiens, UniProt P08172).
T2 sequence (P08172 whole entry): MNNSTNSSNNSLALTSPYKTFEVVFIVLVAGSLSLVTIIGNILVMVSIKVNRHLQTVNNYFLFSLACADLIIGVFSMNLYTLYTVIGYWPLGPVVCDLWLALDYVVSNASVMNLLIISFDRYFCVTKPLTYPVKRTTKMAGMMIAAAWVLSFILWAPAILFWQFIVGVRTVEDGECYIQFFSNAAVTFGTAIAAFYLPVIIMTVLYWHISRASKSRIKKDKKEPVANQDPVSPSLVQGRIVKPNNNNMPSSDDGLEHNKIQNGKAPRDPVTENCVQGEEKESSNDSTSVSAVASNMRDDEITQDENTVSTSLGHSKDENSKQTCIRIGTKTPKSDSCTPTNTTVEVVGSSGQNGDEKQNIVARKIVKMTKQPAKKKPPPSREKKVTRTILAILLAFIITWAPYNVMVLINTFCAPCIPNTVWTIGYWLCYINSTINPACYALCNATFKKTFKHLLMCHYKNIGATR
The test is classed as functional, cell-based.

In test [4] the target is T3, Alpha-2A adrenergic receptor (Homo sapiens, UniProt P08913).
T3 sequence (P08913 whole entry): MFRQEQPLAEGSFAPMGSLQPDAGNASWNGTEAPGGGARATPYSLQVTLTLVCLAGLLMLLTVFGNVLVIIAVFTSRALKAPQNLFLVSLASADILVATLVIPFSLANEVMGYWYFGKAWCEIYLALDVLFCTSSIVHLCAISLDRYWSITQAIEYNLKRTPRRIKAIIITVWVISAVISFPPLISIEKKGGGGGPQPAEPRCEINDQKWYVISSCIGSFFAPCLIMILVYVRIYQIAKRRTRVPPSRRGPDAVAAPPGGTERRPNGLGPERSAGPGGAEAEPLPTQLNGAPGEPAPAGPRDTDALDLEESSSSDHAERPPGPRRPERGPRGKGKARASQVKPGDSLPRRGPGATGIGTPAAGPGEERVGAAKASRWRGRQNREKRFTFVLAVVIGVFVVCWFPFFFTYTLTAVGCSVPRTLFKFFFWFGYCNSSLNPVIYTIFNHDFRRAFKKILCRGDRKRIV
It counts as functional, cell-based.

For test [5], the target named is Gamma-aminobutyric acid receptor subunit alpha-1 (Rattus norvegicus, UniProt P62813). It counts as functional.
The target of test [6] is Growth hormone secretagogue receptor type 1 (Homo sapiens, UniProt Q92847).
The target in test [7] is T4, 5-hydroxytryptamine receptor 3A (Homo sapiens, UniProt P46098).
T4 sequence (P46098 whole entry): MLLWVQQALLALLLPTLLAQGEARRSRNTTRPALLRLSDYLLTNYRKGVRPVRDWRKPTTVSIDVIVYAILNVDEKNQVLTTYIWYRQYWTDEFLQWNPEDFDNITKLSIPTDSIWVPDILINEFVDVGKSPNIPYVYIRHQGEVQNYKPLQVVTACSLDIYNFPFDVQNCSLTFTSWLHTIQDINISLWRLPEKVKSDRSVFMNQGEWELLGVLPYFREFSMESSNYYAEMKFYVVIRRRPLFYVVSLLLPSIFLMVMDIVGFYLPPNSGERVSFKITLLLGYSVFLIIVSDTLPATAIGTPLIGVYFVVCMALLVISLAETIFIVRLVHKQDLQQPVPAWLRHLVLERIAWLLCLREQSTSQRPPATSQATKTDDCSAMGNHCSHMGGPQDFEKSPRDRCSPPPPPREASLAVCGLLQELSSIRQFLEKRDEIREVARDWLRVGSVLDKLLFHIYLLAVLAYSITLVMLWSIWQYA
It counts as functional.

The target of test [8] is Voltage-gated inwardly rectifying potassium channel KCNH2 (Homo sapiens, UniProt Q12809). It counts as functional. Particulars: read-out: AC50.
Test [9] deals with T5, 5-hydroxytryptamine receptor 1A (Homo sapiens, UniProt P08908).
T5 sequence (P08908 whole entry): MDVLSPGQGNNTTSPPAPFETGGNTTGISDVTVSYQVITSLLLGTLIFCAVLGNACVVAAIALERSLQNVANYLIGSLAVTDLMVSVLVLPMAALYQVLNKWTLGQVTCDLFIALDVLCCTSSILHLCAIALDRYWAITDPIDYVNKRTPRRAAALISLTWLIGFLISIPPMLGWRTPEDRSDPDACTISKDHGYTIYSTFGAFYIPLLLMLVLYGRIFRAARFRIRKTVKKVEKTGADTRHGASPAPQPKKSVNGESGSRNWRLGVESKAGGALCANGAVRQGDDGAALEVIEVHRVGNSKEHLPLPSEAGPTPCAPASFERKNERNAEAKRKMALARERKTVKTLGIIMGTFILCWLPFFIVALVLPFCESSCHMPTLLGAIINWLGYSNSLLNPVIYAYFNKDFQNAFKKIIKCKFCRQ
It counts as functional, cell-based.

A further test has as its target Adenosine receptor A2a (Homo sapiens, UniProt P29274).
Another test concerns the target Motilin receptor (Homo sapiens, UniProt O43193).
Also: assay procedure not described here.

cGMP-inhibited 3',5'-cyclic phosphodiesterase 3A, sequence (Q14432 whole entry): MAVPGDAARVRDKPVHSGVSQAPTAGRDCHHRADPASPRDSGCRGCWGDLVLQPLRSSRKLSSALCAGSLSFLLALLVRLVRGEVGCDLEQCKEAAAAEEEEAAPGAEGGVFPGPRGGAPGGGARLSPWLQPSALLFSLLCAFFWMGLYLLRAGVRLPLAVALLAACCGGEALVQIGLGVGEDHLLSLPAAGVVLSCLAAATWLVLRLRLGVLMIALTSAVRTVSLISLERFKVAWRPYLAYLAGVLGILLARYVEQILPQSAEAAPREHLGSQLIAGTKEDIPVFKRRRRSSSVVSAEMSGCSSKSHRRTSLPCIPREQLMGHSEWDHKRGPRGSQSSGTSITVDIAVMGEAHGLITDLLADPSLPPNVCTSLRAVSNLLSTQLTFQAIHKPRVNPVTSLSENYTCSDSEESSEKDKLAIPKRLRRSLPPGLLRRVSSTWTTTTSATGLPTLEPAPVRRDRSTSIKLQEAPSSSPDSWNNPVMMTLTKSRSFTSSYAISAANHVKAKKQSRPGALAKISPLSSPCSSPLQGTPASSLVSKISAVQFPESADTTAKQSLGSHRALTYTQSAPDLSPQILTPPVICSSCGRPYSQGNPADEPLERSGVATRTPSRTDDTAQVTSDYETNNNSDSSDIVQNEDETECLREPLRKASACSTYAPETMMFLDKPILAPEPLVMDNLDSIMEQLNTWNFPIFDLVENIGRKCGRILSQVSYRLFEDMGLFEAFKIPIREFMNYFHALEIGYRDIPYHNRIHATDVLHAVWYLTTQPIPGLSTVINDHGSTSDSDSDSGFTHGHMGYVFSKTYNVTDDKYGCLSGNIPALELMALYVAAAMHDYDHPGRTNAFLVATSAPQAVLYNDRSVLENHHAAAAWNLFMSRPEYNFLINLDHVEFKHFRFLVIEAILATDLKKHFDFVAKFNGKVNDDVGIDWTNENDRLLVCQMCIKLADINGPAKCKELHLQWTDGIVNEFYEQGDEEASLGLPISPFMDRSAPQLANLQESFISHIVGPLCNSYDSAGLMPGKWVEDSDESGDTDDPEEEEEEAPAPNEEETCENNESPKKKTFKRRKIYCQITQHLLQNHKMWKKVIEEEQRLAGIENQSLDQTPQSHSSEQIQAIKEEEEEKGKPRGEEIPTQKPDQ
Motilin receptor, sequence (O43193 whole entry): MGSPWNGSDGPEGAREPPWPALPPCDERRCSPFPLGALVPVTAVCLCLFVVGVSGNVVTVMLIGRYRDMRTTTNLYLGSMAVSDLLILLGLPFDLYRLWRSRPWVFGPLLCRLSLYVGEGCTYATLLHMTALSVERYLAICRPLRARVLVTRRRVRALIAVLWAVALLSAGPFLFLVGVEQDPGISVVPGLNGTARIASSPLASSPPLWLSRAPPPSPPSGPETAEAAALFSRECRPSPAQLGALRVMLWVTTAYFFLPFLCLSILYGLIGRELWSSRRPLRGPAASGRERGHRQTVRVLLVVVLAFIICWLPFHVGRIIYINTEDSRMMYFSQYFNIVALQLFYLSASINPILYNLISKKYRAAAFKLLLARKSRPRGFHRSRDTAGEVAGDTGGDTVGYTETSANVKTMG
Adenosine receptor A2a, sequence (P29274 whole entry): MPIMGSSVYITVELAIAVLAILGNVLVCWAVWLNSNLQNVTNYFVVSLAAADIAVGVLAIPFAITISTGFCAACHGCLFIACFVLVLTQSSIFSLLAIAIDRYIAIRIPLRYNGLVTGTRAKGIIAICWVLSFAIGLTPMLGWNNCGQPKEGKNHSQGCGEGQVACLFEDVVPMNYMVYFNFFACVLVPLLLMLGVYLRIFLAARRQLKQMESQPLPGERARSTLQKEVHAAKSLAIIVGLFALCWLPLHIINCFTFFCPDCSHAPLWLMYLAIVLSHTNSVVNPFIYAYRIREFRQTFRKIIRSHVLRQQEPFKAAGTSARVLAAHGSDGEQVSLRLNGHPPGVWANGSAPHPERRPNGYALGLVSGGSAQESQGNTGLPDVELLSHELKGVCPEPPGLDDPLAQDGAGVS
Growth hormone secretagogue receptor type 1, sequence (Q92847 whole entry): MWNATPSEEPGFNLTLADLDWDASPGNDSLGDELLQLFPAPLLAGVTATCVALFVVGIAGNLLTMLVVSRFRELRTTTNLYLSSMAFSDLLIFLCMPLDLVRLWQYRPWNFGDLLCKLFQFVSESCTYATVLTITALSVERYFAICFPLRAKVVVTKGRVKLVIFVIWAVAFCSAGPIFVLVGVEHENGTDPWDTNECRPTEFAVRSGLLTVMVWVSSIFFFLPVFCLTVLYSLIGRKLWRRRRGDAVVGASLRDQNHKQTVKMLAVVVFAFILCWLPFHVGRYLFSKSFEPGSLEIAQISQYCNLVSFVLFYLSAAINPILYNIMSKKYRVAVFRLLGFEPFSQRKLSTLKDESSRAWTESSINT
Voltage-gated inwardly rectifying potassium channel KCNH2, sequence (Q12809 whole entry): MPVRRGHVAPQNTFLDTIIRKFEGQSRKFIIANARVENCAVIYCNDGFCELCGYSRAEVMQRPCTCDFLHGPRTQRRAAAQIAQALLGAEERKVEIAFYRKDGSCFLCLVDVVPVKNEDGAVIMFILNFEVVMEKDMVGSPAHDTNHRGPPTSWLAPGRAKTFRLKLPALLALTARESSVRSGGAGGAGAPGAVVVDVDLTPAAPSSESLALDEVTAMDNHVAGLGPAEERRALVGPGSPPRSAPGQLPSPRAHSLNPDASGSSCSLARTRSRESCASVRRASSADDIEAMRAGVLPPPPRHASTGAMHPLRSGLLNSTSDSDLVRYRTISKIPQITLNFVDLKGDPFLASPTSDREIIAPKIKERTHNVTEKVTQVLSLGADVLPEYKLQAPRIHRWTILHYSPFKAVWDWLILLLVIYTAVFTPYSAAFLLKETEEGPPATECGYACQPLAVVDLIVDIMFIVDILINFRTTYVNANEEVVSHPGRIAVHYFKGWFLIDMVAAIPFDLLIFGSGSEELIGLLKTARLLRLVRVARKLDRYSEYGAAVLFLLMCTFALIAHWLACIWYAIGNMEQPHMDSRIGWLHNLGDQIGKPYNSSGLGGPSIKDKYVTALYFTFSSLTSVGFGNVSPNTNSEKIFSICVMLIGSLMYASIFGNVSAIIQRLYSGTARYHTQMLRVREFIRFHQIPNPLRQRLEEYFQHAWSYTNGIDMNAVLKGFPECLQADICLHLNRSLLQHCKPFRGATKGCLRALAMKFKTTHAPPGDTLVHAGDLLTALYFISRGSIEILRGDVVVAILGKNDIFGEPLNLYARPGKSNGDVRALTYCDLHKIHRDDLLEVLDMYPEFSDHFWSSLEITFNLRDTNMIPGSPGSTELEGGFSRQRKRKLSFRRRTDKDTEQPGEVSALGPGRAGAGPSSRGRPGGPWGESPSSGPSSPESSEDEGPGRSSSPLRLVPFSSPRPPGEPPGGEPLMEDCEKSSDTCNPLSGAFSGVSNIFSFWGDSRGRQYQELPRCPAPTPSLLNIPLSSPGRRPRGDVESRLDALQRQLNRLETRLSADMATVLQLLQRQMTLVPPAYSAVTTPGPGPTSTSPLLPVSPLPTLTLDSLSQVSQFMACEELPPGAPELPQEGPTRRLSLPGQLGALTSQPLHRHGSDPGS
Gamma-aminobutyric acid receptor subunit alpha-1, sequence (P62813 whole entry): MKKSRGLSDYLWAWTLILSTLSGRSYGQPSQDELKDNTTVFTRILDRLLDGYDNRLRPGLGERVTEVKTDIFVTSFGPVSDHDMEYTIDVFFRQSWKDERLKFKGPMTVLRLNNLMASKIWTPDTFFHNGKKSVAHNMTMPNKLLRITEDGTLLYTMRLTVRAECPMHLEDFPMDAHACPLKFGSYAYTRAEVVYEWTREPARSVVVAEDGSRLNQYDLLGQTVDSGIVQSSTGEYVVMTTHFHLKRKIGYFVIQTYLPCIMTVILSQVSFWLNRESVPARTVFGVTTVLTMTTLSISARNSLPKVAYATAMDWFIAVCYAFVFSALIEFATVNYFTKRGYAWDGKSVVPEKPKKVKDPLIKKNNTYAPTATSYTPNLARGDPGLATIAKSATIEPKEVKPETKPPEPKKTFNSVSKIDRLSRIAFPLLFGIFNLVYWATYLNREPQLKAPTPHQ

With `CCCCN1C[C@H](O)[C@@H](O)[C@H](O)[C@H]1CO`, the half-maximal activity concentration (AC50) in test [1], in [2], in test [3], in test [4], in test [5] and in test [6] was over 30 µM each time. Further, the AC50 (in [7]; in test [8]; in test [9]; at Adenosine receptor A2a; on Motilin receptor) was over 30 µM each time.

`CN(C)CCC=C1c2ccccc2C(C)(C)c2ccccc21`: the concentration at half-maximal activity (AC50) (usually the concentration at which the activity in the assay is half-maximal) in test [1] was over 30 µM; in test [2], over 30 µM; in test [3] it was over 10 µM; in [4], 6.7 µM; in test [5], over 30 µM; in test [6], 22 µM. The half-maximal activity concentration (AC50) was 4.4 µM in [7]; 4.13 µM in test [8]; 26 µM in [9]; over 30 µM on Adenosine receptor A2a; 14 µM at Motilin receptor.

Take `CCOC(=O)[C@H](CCc1ccccc1)N[C@@H](C)C(=O)N1[C@H](C(=O)O)C[C@@H]2CCC[C@@H]21`: the AC50 in [1] is over 30 µM; in [2], over 30 µM; in test [3] it was over 10 µM; in test [4] it was over 10 µM; in test [5], over 10 µM; in test [6], over 30 µM. The AC50 is over 30 µM in [7]; over 30 µM in test [8]; over 10 µM in [9]; over 30 µM on Adenosine receptor A2a; over 10 µM on Motilin receptor.

Take `Nc1nc(NC2CC2)c2ncn([C@H]3C=C[C@@H](CO)C3)c2n1` [ABACAVIR]: the half-maximal activity concentration (AC50) in test [1], in [2], in test [3], in test [4], in test [5] and in [6] was over 30 µM each time. For the same compound, the AC50 (in test [7]; in [8]; in [9]; on Adenosine receptor A2a; on Motilin receptor) was over 30 µM in each case.

`CC(=O)NCCCS(=O)(=O)O` [ACAMPROSATE]: the AC50 in test [1], in test [2], in test [3], in [4], in [5] and in [6] was over 30 µM throughout. For the same compound, the AC50 (in test [7]; in [8]; in test [9]; on Adenosine receptor A2a; at Motilin receptor) was over 30 µM each time.

Turning to `CC(=O)Nc1ccc(O)cc1` [ACETAMINOPHEN], the AC50 in test [1], in [2], in test [3], in [4], in test [5] and in test [6] was over 30 µM in each case. Also, the AC50 (in [7]; in [8]; in test [9]; on Adenosine receptor A2a; at Motilin receptor) was over 30 µM throughout.

As for `COc1cc2nc(N(C)CCCNC(=O)C3CCCO3)nc(N)c2cc1OC` (configuration not stated) [ALFUZOSIN], the AC50 was over 30 µM in test [1]; over 30 µM in [2]; over 30 µM in test [3]; 6.8 µM in test [4]; over 30 µM in test [5]; over 30 µM in test [6]. Besides, the AC50 (in test [7]; in [9]; at Adenosine receptor A2a; at Motilin receptor) was over 30 µM each time.

As for `Cc1ccc(-c2cc(C(F)(F)F)nn2-c2ccc(S(N)(=O)=O)cc2)cc1` [CELECOXIB], the concentration at half-maximal activity (AC50) in test [2] was over 30 µM; in test [3], over 10 µM; in [4] it was over 10 µM; in [5] it was over 10 µM; in test [6] it was over 10 µM; in [7] it was over 30 µM. Moreover, the AC50 (in [9]; on Adenosine receptor A2a; on Motilin receptor) was over 10 µM each time.

As for `CN(C)CCC(c1ccc(Cl)cc1)c1ccccn1` (configuration not stated) [CHLORPHENIRAMINE], the AC50 in [1] was over 30 µM; in test [2], over 10 µM; in [3], over 10 µM; in test [4], over 10 µM; in test [5], over 10 µM; in test [6], over 30 µM. The half-maximal activity concentration (AC50) in test [7] is over 10 µM; in test [9], over 10 µM; on Adenosine receptor A2a it was over 30 µM; on Motilin receptor it was over 10 µM.

Turning to `O=C(Cc1ccc(-c2ccccc2)cc1)Nc1ccccn1` [DIFENPIRAMIDE], the AC50 in test [2], in test [3], in test [4], in test [5], in test [7] and in test [8] was over 30 µM throughout. In addition, the AC50 in [9] was over 30 µM.

As for `COc1ccccc1OCC(O)CN1CCN(CC(=O)Nc2c(C)cccc2C)CC1` (configuration not stated) [RANOLAZINE], the AC50 in [1] is over 30 µM; in test [2], over 30 µM; in [3], over 30 µM; in test [4], 7.7 µM; in test [5], over 30 µM; in test [6] it was over 30 µM. In addition, the AC50 (in test [7]; in [9]; at Adenosine receptor A2a; on Motilin receptor) was over 30 µM throughout.

For the compound `CS(=O)(=O)c1ccc(C2=C(c3ccccc3)C(=O)OC2)cc1` [ROFECOXIB], the AC50 is over 30 µM in [2]; over 30 µM in test [3]; over 30 µM in test [4]; 4.7 µM in test [5]; over 30 µM in [6]; over 10 µM in test [7]. Moreover, the concentration at half-maximal activity (AC50) was over 30 µM in test [8], over 30 µM in test [9], over 30 µM on Adenosine receptor A2a and over 10 µM at Motilin receptor.
